Like-named read-outs stand apart in the source and are kept apart here. Blank lines part the entries; values can stand above or below the molecule they belong to. Where no end group is shown, it is not given here. [ ]: non-standard residue; d: D form.
Key:
human SCTR [1] = molecular target: T1, human SCTR (Homo sapiens, UniProt P47872); experiment: GloSensor cAMP assay, agonist mode; assay type: cell-based; parameters: expressed in transfected cells; conditions: for Emax: read-out: cAMP Production, Intrinsic Activity
Experimental: Analysis of downstream signaling of activated SCTR via Gαs G-protein subunits was performed by monitoring intracellular cAMP utilizing the GloSensor system (Promega, Walldorf, Germany) in accordance with the supplier protocol. Measurements were performed using the EnVision Analyzer (PerkinElmer, Rodgau, Germany). For evaluation, concentration–response curves (signal-to-noise ratios plotted) employing the derived statistical mean and SD for estimation of the respective EC50 were calculated using Spotfire Decision Site (TIBCO, Palo Alto, CA, USA). For the analysis of antagonists, a modified protocol was used. Treatment of cells and dilution of the potential antagonist was performed as previously described. Ligand dilutions were added to cells and incubated at room temperature for 5 min. Successively, secretin was added at a final concentration of 0.5 nM for an additional 15 min at room temperature. The emitted chemiluminescence, which correlates with the cAMP concentration, was detected with suitable filters. Evaluation of data was performed as previously described with a calculation of half-maximal inhibitory concentration (IC50).

human SCTR [2] = molecular target: T1, human SCTR; experiment: agonist-induced β-arr2-GFP translocation; assay type: cell-based; parameters: expressed in transfected cells; host or cells: U2OS (human osteosarcoma), stably co-transfected with β-arrestin2-GFP; conditions: Supplementary Tables S1 and S2, decimal comma, '-' not detectable (Figure 4); for β-arrestin2-GFP agonism efficacy: % of wild-type secretin; for EC50: U2OS-SCTR/β-arr2-GFP cells, 20 min at 37 °C, mean of at least three independent experiments in duplicates, read-out: β-arrestin2-GFP agonism potency
From the text: (§1) U2OS-SCTR/β-arr2-GFP: human osteosarcoma cell line U2OS (purchased from ATCC/LGC Standards, Wesel, Germany) were stably transfected with plasmids encoding SCTR (Homo sapiens) and the fusion protein β-arrestin2-green fluorescent protein (GFP) (Rattus norvegicus-Aequorea victoria) (β-arr2-GFP).
To evaluate reactivity of human SCTR exposed to different ligand variants, intracellular translocation of a fusion protein of β-arrestin2 and green fluorescent protein was utilized. For evaluation of activation, receptor-mediated recruitment of cytoplasmic β-arr2-GFP was monitored through its translocation into condensed intracellular vesicles. The extent of translocation events was quantified by determining the increasing granularization of the intracellular fluorescence utilizing an automated high-throughput microscope in combination with computational algorithms to estimate potency (EC50) and efficacy, thus characterizing ligand-SCTR interaction. U2OS-SCTR/β-arr2-GFP cells were seeded in 96-well cell culture plates to 60–80% confluence. On the following day, preceding stimulation, cells were incubated for one hour in serum-free medium. Ligand variants were applied as serial dilutions in assay buffer C1. After preincubation, supernatant was discarded by tapping plates overhead repeatedly. For stimulation, 50 µL of ligand dilution was applied per well in duplicates and incubated for 20 min at 37 °C. Successively, cells were fixed by applying 4% buffered formaldehyde (Herbeta Arzneimittel, Berlin, Germany) for 10 min at room temperature and consecutively permeabilized for 10 min at room temperature with 0.1% TritonX-100 in PBS, containing DAPI (4′,6-Diamidin-2-phenylindol, SigmaAldrich, Deisenhofen, Germany, 1 µg/mL) to counterstain nuclei. Microscopic images were recorded by an IN Cell Analyzer 1000 (GE Healthcare, Reading, UK) with 20× magnification at 5 frames per well in a 96-well format. Image processing was performed with IN Cell Investigator software (GE Healthcare, Reading, UK), applying the provided granularity algorithm. The output of the analysis was indicated as vesicle area/cell and was utilized for calculation of concentration–response curves. Parameters derived from curve fitting included the concentration of half-maximal activity (EC50), and intrinsic activity. Intrinsic activity was normalized defining reaction to non-modified wild type secretin as the 100% curve maximum value.

human SCTR [3] = molecular target: T1, human SCTR; experiment: β-arr2-GFP translocation assay run in antagonist mode; assay type: cell-based; parameters: expressed in transfected cells; host or cells: U2OS (human osteosarcoma), stably co-transfected with β-arrestin2-GFP; for IC50, inhibition of β-arr2-GFP translocation (Table 3): peptide 5 min at 37 °C
From the text: as §1
For analysis of antagonistic effects on SCTR, a slightly modified protocol of the β-arr2-GFP translocation was used. […] For analysis, cells were terminally fixed and permeabilized as previously described. The additional monitoring of IDCC fluorescence in the near-infrared channel (667 nm) provided another measure for receptor binding and activation.

[4] = molecular target: human secretin receptor (SCTR) (human, UniProt P47872 23-440); experiment: cell-based or functional assay
[5] = Supplementary Table S2, GloSensor system, at least three independent experiments in duplicates, decimal comma, read-out: cAMP agonism potency
[6] = read-out: IC50, inhibition of β-arr2-GFP translocation (Table 2)
[7] = GloSensor cAMP assay, at least 3 independent experiments in duplicates

T1 sequence (P47872 23-440): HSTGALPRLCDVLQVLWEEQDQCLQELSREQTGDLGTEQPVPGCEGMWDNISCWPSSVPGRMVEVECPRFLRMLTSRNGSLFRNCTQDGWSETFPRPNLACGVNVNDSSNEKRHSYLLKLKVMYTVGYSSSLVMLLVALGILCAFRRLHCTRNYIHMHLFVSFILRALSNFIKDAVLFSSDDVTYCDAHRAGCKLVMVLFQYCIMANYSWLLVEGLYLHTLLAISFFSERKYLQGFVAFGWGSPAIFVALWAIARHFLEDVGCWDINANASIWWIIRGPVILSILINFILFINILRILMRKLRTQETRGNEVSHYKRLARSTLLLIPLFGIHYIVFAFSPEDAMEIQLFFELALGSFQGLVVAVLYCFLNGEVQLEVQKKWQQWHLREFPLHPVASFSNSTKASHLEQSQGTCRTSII
human secretin receptor (SCTR), sequence (P47872 23-440): as above

Molecule: HSDGTFTSELSRLREGARLQRLLQG [Peptide 98]
- EC50 (human SCTR [1]; [5]): 1.55 nM
- β-arrestin2-GFP agonism efficacy (human SCTR [2]): 104,47 % Sec
- EC50 (human SCTR [2]): 26.5 nM

Molecule: CC(C)C[C@H](NC(=O)CNC(=O)[C@H](CCC(N)=O)NC(=O)[C@H](CC(C)C)NC(=O)[C@H](CC(C)C)NC(=O)[C@H](CCCNC(=N)N)NC(=O)[C@H](CCC(N)=O)NC(=O)[C@H](CC(C)C)NC(=O)[C@H](CCCNC(=N)N)NC(=O)[C@H](C)NC(=O)CNC(=O)[C@H](CCC(=O)O)NC(=O)[C@H](CCCNC(=N)N)NC(=O)[C@H](CC(C)C)NC(=O)[C@H](CCCNC(=N)N)NC(=O)[C@H](CO)NC(=O)[C@H](CC(C)C)NC(=O)[C@H](CCC(=O)O)NC(=O)[C@H](CO)NC(=O)[C@@H](NC(=O)[C@H](Cc1ccccc1)NC(=O)[C@@H](NC(=O)CN)[C@@H](C)O)[C@@H](C)O)C(=O)N[C@H](C(=O)O)C(C)C [Peptide 117]
- EC50 (human SCTR [1]; [5]): 166 nM
- IC50 (human SCTR [3]; [6]): 1920 ± 355 nM

Molecule: HSDGTFTSELSRLREGARLQR [Peptide 102]
- EC50 (human SCTR [1]; [5]): 586 nM

Molecule: HSDGTFTSELSRLREGARLQRLLQ [Peptide 99]
- EC50 (human SCTR [1]; [5]): 2.09 nM
- β-arrestin2-GFP agonism efficacy (human SCTR [2]): 103,60 % Sec
- EC50 (human SCTR [2]): 35.9 nM

Molecule: HSDGTFTSELSRLREGARLQRL [Peptide 101]
- EC50 (human SCTR [1]; [5]): 57 nM

Molecule: HSDGTFTSELSRLREGARLQRLL [Peptide 100]
- EC50 (human SCTR [1]; [5]): 7.63 nM
- β-arrestin2-GFP agonism efficacy (human SCTR [2]): 92,23 % Sec
- EC50 (human SCTR [2]): 131 nM

Molecule: CC(C)C[C@H](NC(=O)CNC(=O)[C@H](CCC(N)=O)NC(=O)[C@H](CC(C)C)NC(=O)[C@H](CC(C)C)NC(=O)[C@H](CCCNC(=N)N)NC(=O)[C@H](CCC(N)=O)NC(=O)[C@H](CC(C)C)NC(=O)[C@H](CCCNC(=N)N)NC(=O)[C@H](C)NC(=O)CNC(=O)[C@H](CCC(=O)O)NC(=O)[C@H](CCCNC(=N)N)NC(=O)[C@H](CC(C)C)NC(=O)[C@H](CCCNC(=N)N)NC(=O)[C@H](CO)NC(=O)[C@H](CC(C)C)NC(=O)[C@H](CCC(=O)O)NC(=O)[C@H](CO)NC(=O)[C@@H](N)[C@@H](C)O)C(=O)N[C@H](C(N)=O)C(C)C [Peptide 120]
- Emax (human SCTR [1]; [7]): 90.6 ± 11.5%
- EC50 (human SCTR [1]; GloSensor cAMP assay, at least 3 independent experiments in duplicates, read-out: cAMP Production, EC50): 3370 ± 1570 nM
- IC50 (human SCTR [3]; [6]): > 3000 nM
- IC50 (human SCTR [3]; read-out: Inhibition of β-arr2-GFP Translocation, IC50): > 3000 nM

Molecule: HSDGTFTSELSRLREGARLQRLLQGL [Peptide 97]
- EC50 (human SCTR [1]; [5]): 0.51 nM
- β-arrestin2-GFP agonism efficacy (human SCTR [2]): 109,53 % Sec
- EC50 (human SCTR [2]): 8.8 nM

Molecule: CC(C)C[C@H](NC(=O)CNC(=O)[C@H](CCC(N)=O)NC(=O)[C@H](CC(C)C)NC(=O)[C@H](CC(C)C)NC(=O)[C@H](CCCNC(=N)N)NC(=O)[C@H](CCC(N)=O)NC(=O)[C@H](CC(C)C)NC(=O)[C@H](CCCNC(=N)N)NC(=O)[C@H](C)NC(=O)CNC(=O)[C@H](CCC(=O)O)NC(=O)[C@H](CCCNC(=N)N)NC(=O)[C@H](CC(C)C)NC(=O)[C@H](CCCNC(=N)N)NC(=O)[C@H](CO)NC(=O)[C@H](CC(C)C)NC(=O)[C@H](CCC(=O)O)NC(=O)[C@H](CO)NC(=O)[C@@H](NC(=O)[C@H](Cc1ccccc1)NC(=O)[C@@H](NC(=O)CNC(=O)[C@H](CC(=O)O)NC(=O)[C@@H](N)CO)[C@@H](C)O)[C@@H](C)O)C(=O)N[C@H](C(=O)O)C(C)C [Peptide 115]
- EC50 (human SCTR [1]; [5]): 22 nM
- IC50 (human SCTR [3]; [6]): 1280 ± 703 nM

Molecule: HSDGTFTSELSRLREGARLQ [Peptide 103]
- EC50 (human SCTR [1]; [5]): 875 nM

The next lines start with the values.

- Emax (human SCTR [1]; [7]): 31.1 ± 2.2%
Molecule: CC(C)C[C@H](NC(=O)[C@H](C)NC(=O)[C@H](CCC(N)=O)NC(=O)[C@H](CC(C)C)NC(=O)[C@H](CC(C)C)NC(=O)[C@H](CCCNC(=N)N)NC(=O)[C@H](CCC(N)=O)NC(=O)[C@H](CC(C)C)NC(=O)[C@H](CCCNC(=N)N)NC(=O)[C@H](C)NC(=O)CNC(=O)[C@H](CCC(=O)O)NC(=O)[C@H](CCCNC(=N)N)NC(=O)[C@H](CC(C)C)NC(=O)[C@H](CCCNC(=N)N)NC(=O)[C@H](CO)NC(=O)[C@H](CC(C)C)NC(=O)[C@H](CCC(=O)O)NC(=O)[C@H](CO)NC(=O)[C@@H](NC(=O)[C@H](Cc1ccccc1)NC(=O)[C@H](N)CCCNC(=N)N)[C@@H](C)O)C(=O)N[C@H](C(=O)O)C(C)C [Peptide 144]

- Emax (human SCTR [1]; [7]): 27.5 ± 8.8%
Molecule: CC(C)C[C@H](NC(=O)CNC(=O)[C@H](C)NC(=O)[C@H](CC(C)C)NC(=O)[C@H](CC(C)C)NC(=O)[C@H](CCCNC(=N)N)NC(=O)[C@H](CCC(N)=O)NC(=O)[C@H](CC(C)C)NC(=O)[C@H](CCCNC(=N)N)NC(=O)[C@H](C)NC(=O)CNC(=O)[C@H](CCC(=O)O)NC(=O)[C@H](CCCNC(=N)N)NC(=O)[C@H](CC(C)C)NC(=O)[C@H](CCCNC(=N)N)NC(=O)[C@H](CO)NC(=O)[C@H](CC(C)C)NC(=O)[C@H](CCC(=O)O)NC(=O)[C@H](CO)NC(=O)[C@@H](NC(=O)[C@H](Cc1ccccc1)NC(=O)[C@H](N)CCCNC(=N)N)[C@@H](C)O)C(=O)N[C@H](C(=O)O)C(C)C [Peptide 143]

- EC50 (human SCTR [1]; [5]): > 10000 nM
- IC50 (human SCTR [3]; [6]): 2730 ± 60 nM
Molecule: CC(C)C[C@H](NC(=O)CNC(=O)[C@H](CCC(N)=O)NC(=O)[C@H](CC(C)C)NC(=O)[C@H](CC(C)C)NC(=O)[C@H](CCCNC(=N)N)NC(=O)[C@H](CCC(N)=O)NC(=O)[C@H](CC(C)C)NC(=O)[C@H](CCCNC(=N)N)NC(=O)[C@H](C)NC(=O)CNC(=O)[C@H](CCC(=O)O)NC(=O)[C@H](CCCNC(=N)N)NC(=O)[C@H](CC(C)C)NC(=O)[C@H](CCCNC(=N)N)NC(=O)[C@H](CO)NC(=O)[C@H](CC(C)C)NC(=O)[C@H](CCC(=O)O)NC(=O)[C@@H](N)CO)C(=O)N[C@H](C(=O)O)C(C)C [Peptide 121]

- Emax (human SCTR [1]; [7]): 33.6 ± 0.9%
Molecule: CC(C)C[C@H](NC(=O)CNC(=O)[C@H](CCC(N)=O)NC(=O)[C@H](CC(C)C)NC(=O)[C@H](CC(C)C)NC(=O)[C@H](CCCNC(=N)N)NC(=O)[C@H](CCC(N)=O)NC(=O)[C@H](CC(C)C)NC(=O)[C@H](CCCNC(=N)N)NC(=O)[C@H](C)NC(=O)[C@H](C)NC(=O)[C@H](CCC(=O)O)NC(=O)[C@H](CCCNC(=N)N)NC(=O)[C@H](CC(C)C)NC(=O)[C@H](CCCNC(=N)N)NC(=O)[C@H](CO)NC(=O)[C@H](CC(C)C)NC(=O)[C@H](CCC(=O)O)NC(=O)[C@H](CO)NC(=O)[C@@H](NC(=O)[C@H](Cc1ccccc1)NC(=O)[C@H](N)CCCNC(=N)N)[C@@H](C)O)C(=O)N[C@H](C(=O)O)C(C)C [Peptide 136]

- IC50 (human SCTR [3]; read-out: IC50, inhibition of β-arr2-GFP translocation (Table 3)): 924 ± 237 nM
Molecule: CC(C)C[C@H](NC(=O)CNC(=O)[C@H](CCC(N)=O)NC(=O)[C@H](CC(C)C)NC(=O)[C@H](CC(C)C)NC(=O)[C@H](CCCNC(=N)N)NC(=O)[C@H](CCC(N)=O)NC(=O)[C@H](CC(C)C)NC(=O)[C@H](CCCNC(=N)N)NC(=O)[C@H](C)NC(=O)CNC(=O)[C@H](CCC(=O)O)NC(=O)[C@H](CCCNC(=N)N)NC(=O)[C@H](CC(C)C)NC(=O)[C@H](CCCNC(=N)N)NC(=O)[C@H](CO)NC(=O)[C@H](CC(C)C)NC(=O)[C@H](CCC(=O)O)NC(=O)[C@H](CO)NC(=O)[C@@H](NC(=O)[C@H](Cc1ccccc1)NC(=O)[C@@H](N)CCCNC(=N)N)[C@@H](C)O)C(=O)N[C@H](C(=O)O)C(C)C [Peptide 124]

- cAMP production (GloSensor), agonist mode: intrinsic activity [% of secretin] [4]: 33.6%
B1: peptide 136 (peptide)
peptide: [dR]FTSELSRLREAARLQRLLQGLV
modifications: ends and bridges not checked

Source: article PMC8944975, “Secretin Receptor as a Target in Gastrointestinal Cancer: Expression Analysis and Ligand Development” (Biomedicines, 2022)
